# Experiments:
# Format in all cases: biochemical
# VanB = target: T1, VanB (Pseudomonas aeruginosa, UniProt Q9HUQ8); assay: ABTS-HRP assay of H2O2 formed; conditions: 24 h; GDH-based NADH regeneration; O2 uncoupling, no ferredoxin
# T1 construct: codon-optimised gene in pET-28a(+), N-terminal 6xHis tag, E. coli JM109(DE3), Ni-sepharose purified; flavin and [2Fe-2S] domains
# T1 sequence (Q9HUQ8 1-317): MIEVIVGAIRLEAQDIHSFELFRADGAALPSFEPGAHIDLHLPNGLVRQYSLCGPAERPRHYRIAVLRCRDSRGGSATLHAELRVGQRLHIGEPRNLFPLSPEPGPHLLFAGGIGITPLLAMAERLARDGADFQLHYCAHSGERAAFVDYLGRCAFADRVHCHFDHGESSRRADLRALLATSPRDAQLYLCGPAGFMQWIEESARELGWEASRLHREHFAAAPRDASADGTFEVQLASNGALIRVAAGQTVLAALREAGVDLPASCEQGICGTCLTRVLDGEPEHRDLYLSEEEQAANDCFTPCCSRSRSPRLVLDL
# PDR = target: T2, PDR (Burkholderia cepacia, UniProt P33164); assay: ABTS-HRP assay of H2O2 formed; conditions: 24 h; GDH-based NADH regeneration; O2 uncoupling, no ferredoxin
# T2 construct: gene ophA1; codon-optimised gene in pET-28a(+), N-terminal 6xHis tag, E. coli JM109(DE3), Ni-sepharose purified; flavin and [2Fe-2S] domains
# T2 sequence (P33164 2-322): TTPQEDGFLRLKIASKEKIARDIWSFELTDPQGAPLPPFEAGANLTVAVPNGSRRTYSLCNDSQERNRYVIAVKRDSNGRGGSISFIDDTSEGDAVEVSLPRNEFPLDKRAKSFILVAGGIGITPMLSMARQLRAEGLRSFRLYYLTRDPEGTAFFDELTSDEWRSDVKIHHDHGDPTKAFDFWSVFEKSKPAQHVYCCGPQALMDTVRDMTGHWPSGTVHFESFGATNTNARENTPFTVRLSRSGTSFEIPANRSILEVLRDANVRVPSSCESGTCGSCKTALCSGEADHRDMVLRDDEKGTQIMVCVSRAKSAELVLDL
# [1] = target: T3, CDO (CDO-WT; CDO-Oxy with CDO-Fd and CDO-Red) (Pseudomonas fluorescens, UniProt Q51743); assay: GC-FID product quantification; conditions: 30 °C, 24 h, pH 7.2; NAD+ with GDH/glucose NADH regeneration, catalase, 1 mM DTT; O2
# T3 construct: gene cumA1; codon-optimised genes in pET-28a(+), N-terminal 6xHis tag, E. coli JM109(DE3), Ni-sepharose purified; components mixed in vitro; with Cumene dioxygenase terminal oxygenase small (beta) subunit; Cumene dioxygenase ferredoxin; Cumene dioxygenase ferredoxin reductase
# T3 sequence (Q51743 1-459): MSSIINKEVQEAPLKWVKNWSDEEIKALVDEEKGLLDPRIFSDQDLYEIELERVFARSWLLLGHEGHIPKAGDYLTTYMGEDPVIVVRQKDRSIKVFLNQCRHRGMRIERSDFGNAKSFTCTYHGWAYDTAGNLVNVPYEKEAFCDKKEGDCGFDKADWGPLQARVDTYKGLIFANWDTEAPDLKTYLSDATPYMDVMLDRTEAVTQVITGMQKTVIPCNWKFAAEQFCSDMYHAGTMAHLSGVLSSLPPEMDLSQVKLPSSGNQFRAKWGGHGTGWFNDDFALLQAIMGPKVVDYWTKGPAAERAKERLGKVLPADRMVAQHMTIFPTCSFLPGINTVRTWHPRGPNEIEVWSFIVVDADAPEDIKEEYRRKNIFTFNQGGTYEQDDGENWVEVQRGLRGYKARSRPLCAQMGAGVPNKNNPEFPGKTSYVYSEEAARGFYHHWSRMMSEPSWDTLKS
# T3 sequence (Q51744 1-186 partner): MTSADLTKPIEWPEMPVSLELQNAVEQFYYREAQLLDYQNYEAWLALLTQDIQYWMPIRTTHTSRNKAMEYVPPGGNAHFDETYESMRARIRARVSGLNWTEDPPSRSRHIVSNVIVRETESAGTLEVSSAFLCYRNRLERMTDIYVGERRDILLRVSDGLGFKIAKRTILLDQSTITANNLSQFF
SMILES,ABTS-HRP assay of H2O2 formed (VanB),ABTS-HRP assay of H2O2 formed (PDR),GC-FID product quantification [1]
NC(=O)C1=CN([C@@H]2O[C@H](COP(=O)(O)OP(=O)(O)OC[C@H]3O[C@@H](n4cnc5c(N)ncnc54)[C@H](O)[C@@H]3O)[C@@H](O)[C@H]2O)C=CC1 [NADH],the H2O2 formation by PDR and VanB was evaluated analogously,the H2O2 formation by PDR and VanB was evaluated analogously,
"C1=Cc2ccccc2C1 [compound 1, indene]",,,product formation in in vitro reactions with complete CDO-WT

# From article doi:10.1101/2024.02.16.580709v1, “Developing Hybrid Systems to Address O2 Uncoupling in Multi-Component Rieske Oxygenases” (biorxiv, 2024)
